US11999786B2, “Anti-CD48 antibodies, antibody drug conjugates, and uses thereof” (Novartis AG, priority 2020, dated 2024)
Non-standard residues stand in square brackets, D forms with d. Residues, ends and D or L forms follow the SMILES beside them. *: point of attachment. Dolaproine = CO[C@@H]([C@@H]1CCCN1)[C@@H](C)C(=O)O; Dil = CC[C@H](C)[C@H](NC)[C@@H](CC(=O)O)OC; X1 = C[C@@H](N*)[C@@H](O)c1ccccc1; NMeV = CN[C@H](C(=O)O)C(C)C

Assays:
Type in all cases: cell-based
KMS-21-BM = assay: Internalization and cell proliferation assay (CellTiter-Glo, with secondary anti-human Fc-VC-MMAE ADC)
Method: (§1) The internalization activity of CD48 antibodies were tested against three endogenous cancer cell lines: KMS-27: JCRB No. JCRB1188 cultured in RPMI-1640+10% FBS; NCI-H929: ATCC No. CRL-9068 cultured in RPMI-1640+10% FBS+0.05 mM 2-mercaptoethanol; and KMS-21-BM: JCRB No. JCRB1185 cultured in RPMI-1640+10% FBS.
(§2) CD48 antibodies were synthesized and expressed generally as described in Example 5. Cell lines were cultured in media that is optimal for their growth at 5% CO2, 37° C. in a tissue culture incubator. Prior to seeding for the proliferation assay, the cells were split at least 2 days before the assay to ensure optimal growth density. On the day of seeding, cell viability and cell density were determined using a cell counter (Vi-Cell XR Cell Viability Analyzer, Beckman Coulter). Cells with higher than 85% viability were seeded in white clear bottom 384-well TC treated plates (Corning cat. #3765). Cells were seeded at a density of 1,000 cells per well in 40 μL of standard growth media. Plates were incubated at 5% CO2, 37° C. overnight in a tissue culture incubator. The next day free MMAE payload, a CD48A-CysMab-VC-MMAE ADC (synthesis described in Example 5), CD48 antibodies, and a non-targeting isotype antibody were prepared at 10× in standard growth media. The MMAE free payload and CD48A-CysMab-VC-MMAE ADC were added to the cells resulting in final concentrations of 0.007-150 nM and a final volume of 50 μL per well. The prepared antibody treatments, including CD48 IgGs and a non-targeting isotype antibody, were then added to the cells resulting in final concentrations of 0.001-20 nM and a final volume of 45 μL per well. An anti-human Fc-VC-MMAE ADC (DAR2.0) was prepared at 10× in standard growth media. The prepared ADC was then added to the cells resulting in a final concentration of 60 nM and a final volume of 50 μL per well. Each drug concentration was tested in quadruplets. Plates were incubated at 5% CO2, 37° C. for 5 days in a tissue culture incubator, after which cell viability was assessed through the addition of 25 μL of CellTiter Glo® (Promega, cat #G7573), a reagent which lyses cells and measures total adenosine triphosphate (ATP) content. Plates were incubated at room temperature for 10 minutes to stabilize luminescent signals prior to reading using a luminescence reader (EnVision Multilabel Plate Reader, PerkinElmer). To evaluate the effect of the drug treatments, luminescent counts from wells containing untreated cells (100% viability) were used to normalize treated samples. A variable slope model was applied to fit a nonlinear regression curve to the data in GraphPad PRISM version 7.02 software. IC50 and Amax values were extrapolated from the resultant curves.
(§3) The dose response curves of representative cancer cell lines are shown in FIG. 2A (KMS-27), FIG. 2B (NCI-H929), and FIG. 2C (KMS-21-BM).

KMS-27 = assay: as above; details: KMS-27, CellTiter-Glo
Method: as §1, §2, §3

NCI-H929 = assay: as above
Method: as §1, §2, §3

[1] = system: KMS-27, NCI-H929 and KMS-21-BM cancer cell lines; assay: Internalization and cell proliferation assay, statements across the three cancer cell lines; details: range across the three cell lines; dosed directly, 5 days, CellTiter-Glo
Method: as §1
CD48 antibodies were synthesized and expressed generally as described in Example 5. Cell lines were cultured in media that is optimal for their growth at 5% CO2, 37° C. in a tissue culture incubator. Prior to seeding for the proliferation assay, the cells were split at least 2 days before the assay to ensure optimal growth density. On the day of seeding, cell viability and cell density were determined using a cell counter (Vi-Cell XR Cell Viability Analyzer, Beckman Coulter). Cells with higher than 85% viability were seeded in white clear bottom 384-well TC treated plates (Corning cat. #3765). […] Plates were incubated at 5% CO2, 37° C. for 5 days in a tissue culture incubator, after which cell viability was assessed through the addition of 25 μL of CellTiter Glo® (Promega, cat #G7573), a reagent which lyses cells and measures total adenosine triphosphate (ATP) content. Plates were incubated at room temperature for 10 minutes to stabilize luminescent signals prior to reading using a luminescence reader (EnVision Multilabel Plate Reader, PerkinElmer). […]

CC[C@H](C)[C@@H]([C@@H](CC(=O)N1CCC[C@H]1[C@H](OC)[C@@H](C)C(=O)N[C@H](C)[C@@H](O)c1ccccc1)OC)N(C)C(=O)[C@@H](NC(=O)[C@@H](NC)C(C)C)C(C)C [MMAE] (H-[NMeV]V[Dil][Dolaproine]-X1)
IC50 (KMS-21-BM): 24 pM
Span (Amax) (KMS-21-BM): 72.9
IC50 (KMS-27): 21 pM
Span (Amax) (KMS-27): 83.9
IC50 (NCI-H929): 116 pM
Span (Amax) (NCI-H929): 88.5
IC50 [1]: 21 to 116 pM
